From ChEMBL document CHEMBL1152667, “Synthesis and radiopharmacological investigation of 3-[4'-[(18)F]fluorobenzylidene]indolin-2-one as possible tyrosine kinase inhibitor” (Bioorg Med Chem, 2009)

How the values were obtained:
Kidney [1] = test: Biodistribution in Wistar rat kidney at 1.7 MBq, iv administered as single dose measured after 5 mins post-injection by gamma counting; type: ADME, organism-based; conditions: in vivo
[2] = Ratio of drug level in pancreas to blood in Wistar rat at 1.7 MBq, iv administered as single dose measured after 5 mins post-injection; type: ADME, organism-based
Blood [3] = test: Biodistribution in Wistar rat blood assessed as standard uptake value at 1.7 MBq, iv administered as single dose measured after 5 mins post-injection by gamma counting; type: ADME, organism-based; conditions: in vivo
[4] = Biodistribution in Wistar rat urine at 1.7 MBq, iv administered as single dose measured after 1 min post-injection by gamma counting; type: ADME, organism-based; conditions: in vivo
[5] = Ratio of drug level in kidney to blood in Wistar rat at 1.7 MBq, iv administered as single dose measured after 60 mins post-injection; type: ADME, organism-based
Adrenal gland [6] = test: Biodistribution in Wistar rat adrenal gland at 1.7 MBq, iv administered as single dose measured after 5 mins post-injection by gamma counting; type: ADME, organism-based; conditions: in vivo
[7] = Biodistribution in Wistar rat brown adipose tissue assessed as standard uptake value at 1.7 MBq, iv administered as single dose measured after 10 mins post-injection by gamma counting; type: ADME, organism-based; conditions: in vivo
Thymus = test: Biodistribution in Wistar rat thymus at 1.7 MBq, iv administered as single dose measured after 60 mins post-injection by gamma counting; type: ADME, organism-based; conditions: in vivo, 1 h
[8] = Biodistribution in Wistar rat hair/skin assessed as standard uptake value at 1.7 MBq, iv administered as single dose measured after 5 mins post-injection by gamma counting; type: ADME, organism-based; conditions: in vivo
[9] = Biodistribution in Wistar rat hair/skin assessed as standard uptake value at 1.7 MBq, iv administered as single dose measured after 1 min post-injection by gamma counting; type: ADME, organism-based; conditions: in vivo
[10] = Metabolic stability in Wistar rat blood assessed as compound remaining at 30 MBq, iv after 20 mins by radio-HPLC analysis; type: ADME, organism-based; conditions: read-out: Stability
[11] = Biodistribution in Wistar rat stomach at 1.7 MBq, iv administered as single dose measured after 1 min post-injection by gamma counting; type: ADME, organism-based; conditions: in vivo
[12] = Biodistribution in Wistar rat urine at 1.7 MBq, iv administered as single dose measured after 5 mins post-injection by gamma counting; type: ADME, organism-based; conditions: in vivo
Kidney [13] = test: Biodistribution in Wistar rat kidney assessed as standard uptake value at 1.7 MBq, iv administered as single dose measured after 10 mins post-injection by gamma counting; type: ADME, organism-based; conditions: in vivo
Femur [14] = test: Biodistribution in Wistar rat femur at 1.7 MBq, iv administered as single dose measured after 30 mins post-injection by gamma counting; type: ADME, organism-based; conditions: in vivo, 0.5 h
Adrenal gland [15] = test: Biodistribution in Wistar rat adrenal gland at 1.7 MBq, iv administered as single dose measured after 60 mins post-injection by gamma counting; type: ADME, organism-based; conditions: in vivo, 1 h
Intestine [16] = test: Biodistribution in Wistar rat intestine at 1.7 MBq, iv administered as single dose measured after 5 mins post-injection by gamma counting; type: ADME, organism-based; conditions: in vivo
Adrenal gland [17] = test: Biodistribution in Wistar rat adrenal gland assessed as standard uptake value at 1.7 MBq, iv administered as single dose measured after 5 mins post-injection by gamma counting; type: ADME, organism-based; conditions: in vivo
[18] = Biodistribution in Wistar rat thyroid gland at 1.7 MBq, iv administered as single dose measured after 10 mins post-injection by gamma counting; type: ADME, organism-based; conditions: in vivo
[19] = Ratio of drug level in lung to blood in Wistar rat at 1.7 MBq, iv administered as single dose measured after 60 mins post-injection; type: ADME, organism-based
Pancreas [20] = test: Biodistribution in Wistar rat pancreas at 1.7 MBq, iv administered as single dose measured after 1 min post-injection by gamma counting; type: ADME, organism-based; conditions: in vivo
Lung [21] = test: Biodistribution in Wistar rat lung at 1.7 MBq, iv administered as single dose measured after 30 mins post-injection by gamma counting; type: ADME, organism-based; conditions: in vivo, 0.5 h
Femur [22] = test: Biodistribution in Wistar rat femur assessed as standard uptake value at 1.7 MBq, iv administered as single dose measured after 1 min post-injection by gamma counting; type: ADME, organism-based; conditions: in vivo
Intestine [23] = test: Biodistribution in Wistar rat intestine at 1.7 MBq, iv administered as single dose measured after 60 mins post-injection by gamma counting; type: ADME, organism-based; conditions: in vivo, 1 h
Adrenal gland [24] = test: Biodistribution in Wistar rat adrenal gland at 1.7 MBq, iv administered as single dose measured after 30 mins post-injection by gamma counting; type: ADME, organism-based; conditions: in vivo, 0.5 h
[25] = Ratio of drug level in heart to blood in Wistar rat at 1.7 MBq, iv administered as single dose measured after 60 mins post-injection; type: ADME, organism-based
Harderian gland [26] = test: Biodistribution in Wistar rat harderian gland at 1.7 MBq, iv administered as single dose measured after 30 mins post-injection by gamma counting; type: ADME, organism-based; conditions: in vivo, 0.5 h
Kidney [27] = test: Biodistribution in Wistar rat kidney at 1.7 MBq, iv administered as single dose measured after 60 mins post-injection by gamma counting; type: ADME, organism-based; conditions: in vivo, 1 h
Harderian gland [28] = test: Biodistribution in Wistar rat harderian gland at 1.7 MBq, iv administered as single dose measured after 10 mins post-injection by gamma counting; type: ADME, organism-based; conditions: in vivo
Blood [29] = test: Metabolic stability in Wistar rat blood at 30 MBq, iv after 60 mins by radio-HPLC analysis; type: ADME, organism-based; conditions: in vivo, 1 h
Testes = test: Biodistribution in Wistar rat testes at 1.7 MBq, iv administered as single dose measured after 60 mins post-injection by gamma counting; type: ADME, organism-based, Testis; conditions: in vivo, 1 h
[30] = Biodistribution in Wistar rat hair/skin assessed as standard uptake value at 1.7 MBq, iv administered as single dose measured after 60 mins post-injection by gamma counting; type: ADME, organism-based; conditions: in vivo, 1 h
Lung [31] = test: Biodistribution in Wistar rat lung assessed as standard uptake value at 1.7 MBq, iv administered as single dose measured after 30 mins post-injection by gamma counting; type: ADME, organism-based; conditions: in vivo, 0.5 h
Liver [32] = test: Biodistribution in Wistar rat liver assessed as standard uptake value at 1.7 MBq, iv administered as single dose measured after 30 mins post-injection by gamma counting; type: ADME, organism-based; conditions: in vivo, 0.5 h
Harderian gland [33] = test: Biodistribution in Wistar rat harderian gland at 1.7 MBq, iv administered as single dose measured after 5 mins post-injection by gamma counting; type: ADME, organism-based; conditions: in vivo
Muscle tissue [34] = test: Biodistribution in Wistar rat muscle assessed as standard uptake value at 1.7 MBq, iv administered as single dose measured after 5 mins post-injection by gamma counting; type: ADME, organism-based; conditions: in vivo
Muscle tissue [35] = test: Biodistribution in Wistar rat muscle assessed as standard uptake value at 1.7 MBq, iv administered as single dose measured after 1 min post-injection by gamma counting; type: ADME, organism-based; conditions: in vivo
Pancreas [36] = test: Biodistribution in Wistar rat pancreas assessed as standard uptake value at 1.7 MBq, iv administered as single dose measured after 1 min post-injection by gamma counting; type: ADME, organism-based; conditions: in vivo
Heart = test: Biodistribution in Wistar rat heart assessed as standard uptake value at 1.7 MBq, iv administered as single dose measured after 10 mins post-injection by gamma counting; type: ADME, organism-based; conditions: in vivo
Liver [37] = test: Biodistribution in Wistar rat liver assessed as standard uptake value at 1.7 MBq, iv administered as single dose measured after 1 min post-injection by gamma counting; type: ADME, organism-based; conditions: in vivo
Lung [38] = test: Biodistribution in Wistar rat lung at 1.7 MBq, iv administered as single dose measured after 60 mins post-injection by gamma counting; type: ADME, organism-based; conditions: in vivo, 1 h
Spleen = test: Biodistribution in Wistar rat spleen at 1.7 MBq, iv administered as single dose measured after 10 mins post-injection by gamma counting; type: ADME, organism-based; conditions: in vivo
Lung [39] = test: Biodistribution in Wistar rat lung at 1.7 MBq, iv administered as single dose measured after 5 mins post-injection by gamma counting; type: ADME, organism-based; conditions: in vivo

- Drug uptake (Kidney [1]): 2.51 %ID
- Kp at 5 min [2]: 3
- SUV (Blood [3]): 0.56%
- Drug uptake [4]: 3.97 %ID
- Kp at 1 h [5]: 7.6
- Drug uptake (Adrenal gland [6]): 0.17 %ID
- SUV [7]: 1.83%
- Drug uptake (Thymus): 0.05 %ID
- SUV [8]: 0.92%
- SUV [9]: 0.67%
- remaining at 20 min [10]: 12%
- Drug uptake [11]: 0.71 %ID
- Drug uptake [12]: 2.39 %ID
- SUV (Kidney [13]): 2.27%
- Drug uptake (Femur [14]): 0.13 %ID
- Drug uptake (Adrenal gland [15]): 0.04 %ID
- Drug uptake (Intestine [16]): 13.96 %ID
- SUV (Adrenal gland [17]): 5.71%
- Drug uptake [18]: 0.05 %ID
- Kp at 1 h [19]: 1.4
- Drug uptake (Pancreas [20]): 0.56 %ID
- Drug uptake (Lung [21]): 0.33 %ID
- SUV (Femur [22]): 0.89%
- Drug uptake (Intestine [23]): 30.16 %ID
- Drug uptake (Adrenal gland [24]): 0.04 %ID
- Kp at 1 h [25]: 1.8
- Drug uptake (Harderian gland [26]): 0.14 %ID
- Drug uptake (Kidney [27]): 0.91 %ID
- Drug uptake (Harderian gland [28]): 0.25 %ID
- Stability (Blood [29]): Unstable
- Drug uptake (Testes): 0.24 %ID
- SUV [30]: 0.19%
- SUV (Lung [31]): 0.47%
- SUV (Liver [32]): 1.68%
- Drug uptake (Harderian gland [33]): 0.34 %ID
- SUV (Muscle tissue [34]): 0.83%
- SUV (Muscle tissue [35]): 0.82%
- SUV (Pancreas [36]): 2.4%
- SUV (Heart): 0.88%
- SUV (Liver [37]): 2.98%
- Drug uptake (Lung [38]): 0.19 %ID
- Drug uptake (Spleen): 0.14 %ID
- Drug uptake (Lung [39]): 1.02 %ID
Compound: O=C1Nc2ccccc2/C1=C/c1ccc([18F])cc1
